Data: publication PMC6978363, “Chaperone mediated detection of small molecule target binding in cells” (Nature Communications, 2020)

Molecular target: T1, c-RAF (Homo sapiens, UniProt P04049)
T1 construct: gene RAF1
Experiment: c-RAF protein level change by immunofluorescence in A549 cells (with and without 17-AAG)
Type: cell-based

T1 sequence (P04049 whole entry): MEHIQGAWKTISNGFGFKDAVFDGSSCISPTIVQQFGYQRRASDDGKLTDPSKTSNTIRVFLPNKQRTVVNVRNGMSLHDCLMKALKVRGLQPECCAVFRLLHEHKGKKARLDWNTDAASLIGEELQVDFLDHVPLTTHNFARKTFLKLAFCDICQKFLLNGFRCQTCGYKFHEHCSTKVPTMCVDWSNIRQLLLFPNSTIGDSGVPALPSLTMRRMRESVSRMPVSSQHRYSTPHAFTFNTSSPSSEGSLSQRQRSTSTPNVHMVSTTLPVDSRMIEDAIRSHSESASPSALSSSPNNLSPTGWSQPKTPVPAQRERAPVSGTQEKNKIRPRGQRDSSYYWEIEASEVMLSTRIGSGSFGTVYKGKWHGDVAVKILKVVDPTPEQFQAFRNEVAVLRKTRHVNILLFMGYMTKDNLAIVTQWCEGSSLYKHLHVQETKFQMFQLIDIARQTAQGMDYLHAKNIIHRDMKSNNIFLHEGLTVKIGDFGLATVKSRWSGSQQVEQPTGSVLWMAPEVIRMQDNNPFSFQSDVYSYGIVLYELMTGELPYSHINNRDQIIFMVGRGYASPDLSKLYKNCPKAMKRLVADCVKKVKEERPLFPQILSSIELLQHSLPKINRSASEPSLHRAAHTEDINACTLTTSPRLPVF

Cc1ccc(NC(=O)c2ccnc(C(F)(F)F)c2)cc1-c1cc(N2CCOCC2)nc(N2CC(O)C2)c1 [Novartis pan-RAF inhibitor]
c-RAF protein level change by immunofluorescence in A549 cells (with and without): The interactions between c-RAF and these inhibitors are examples of a small molecule causing a direct effect on protein abundance
